Experimental data from patent US20050050587A1, “Inducers of plant disease resistance” (priority 2003, published 2005).

Columns and labels:
Type in all cases: in vivo, Nicotiana tabacum (Xanthi nc)
PR-1a protein [1] = experiment: Induction and quantification of PR-1a protein after leaf infiltration of tobacco; details: for PR-1a induction, result in words: leaf infiltration; for PR-1a protein following treatment, 96 h / PR-1a protein following treatment, 192 h: compared to 1 mM SA at 96 h
Procedure: (§1) Tobacco (Nicotiana tabacum) plants (Xanthi nc) were grown in Promix PGX at 25 C and a 16/8 h photoperiod. Plants were fed a 1 g/L concentration of 20-20-20 (N-P-K fertilizer) twice a week. The Xanthi-nc variety carries the N-gene for resistance to TMV.
For evaluating pathogenesis-related protein induction, test compounds were dissolved in ethanol and dispersed in water (0.1% v/v ethanol). The most recently fully-expanded leaf on each plant was selected for infiltration. Infiltration was accomplished using a 5 mL disposable syringe (without needle). The solution was forced through the stomates of the abaxial surface of the leaf. Treatment solution was infiltrated into the leaf until the leaf was saturated.
All harvests were performed 96 hours after infiltration unless indicated. Briefly, treated leaves were de-veined, the remaining tissue was cut into 1 cm×1 cm pieces and vacuum-infiltrated with ice-cold extraction buffer. […] The extracellular fluid containing the acidic PR-1a protein was collected by centrifugation at 1000 g for 10 minutes at 4° C. After collection, samples were stored at −80° C. Protein concentrations of extracellular fluids were determined by Bradford dye reagent (BioRad, Richmond, Calif.) used BSA as a standard. Eight to ten μg of each protein sample were analyzed by electrophoresis on 14% Native Polyacrylamide gels (14% pre-cast Tris-Glycine gels; Invitrogen, Carlsbad, Calif.). Gels were stained with colloidal blue staining reagent (Invitrogen), and PR-1a protein was quantitated using a Model GS-710 densitometer (BioRad).

[2] = test system: tobacco mosaic virus (TMV); experiment: Resistance measurement: TMV lesion diameter after spray application; details: for Percent decrease in TMV-lesion diameter: percent reduction in the diameter of TMV lesions
Procedure: as §1
(§2) Test compounds were dissolved in ETOH and dispersed in water (0.1% v/v ethanol). Spray solutions were amended with 0.25% crop oil concentrate (v/v). Plants were sprayed to drip, and moved to a glasshouse.
After spraying, one leaf per plant was inoculated with 1.0 ug TMV (U1; vulgare strain) at the times indicated. Six days post-inoculation, leaves were removed and the diameters of 20 necrotic lesions were measured per leaf. The mean lesion diameters from at least four plants per treatment were measured. Lesion diameter measures were subjected to two way analysis of variance (ANOVA) and Duncan's multiple range procedure at p=0.05.

PR-1a protein [3] = experiment: Induction of PR-1a protein in Xanthi-nc tobacco after spray application; details: which equals 1
Procedure: as §1, with “TMV. Plants were treated with chemicals and/or virus at 5-6 weeks after sowing, when they had 5-7 fully-expanded leaves.” for “TMV.”
Proteins were harvested by the method of Yalpani et al. (1991; Plant Cell. 3:809-818). All harvests were performed 96 hours after infiltration unless indicated. Briefly, treated leaves were de-veined, the remaining tissue was cut into 1 cm×1 cm pieces and vacuum-infiltrated with ice-cold extraction buffer. Leaf tissue was blotted to remove excess buffer, and placed in a spin column assembly (Yalpani et al., 1991). The extracellular fluid containing the acidic PR-1a protein was collected by centrifugation at 1000 g for 10 minutes at 4° C. After collection, samples were stored at −80° C. Protein concentrations of extracellular fluids were determined by Bradford dye reagent (BioRad, Richmond, Calif.) used BSA as a standard. Eight to ten μg of each protein sample were analyzed by electrophoresis on 14% Native Polyacrylamide gels (14% pre-cast Tris-Glycine gels; Invitrogen, Carlsbad, Calif.). Gels were stained with colloidal blue staining reagent (Invitrogen), and PR-1a protein was quantitated using a Model GS-710 densitometer (BioRad).
as §2

[4] = 1 mM spray 48 h before TMV inoculation
[5] = 1 mM spray 96 h before TMV inoculation

O=C(O)c1ccccc1F [2-Fluorobenzoic acid]
PR-1a induction, result in words (PR-1a protein [1]): significantly reduced activity

O=C(O)c1c(O)c(Cl)cc(Cl)c1Cl [3,5,6-Trichlorosalicylic acid]
Percent decrease in TMV-lesion diameter [2]: 45.1%

O=C(O)c1c(O)c(Cl)cc(Cl)c1O [3,5-Dichloro-6-hydroxysalicylic acid]
Percent decrease in TMV-lesion diameter [2]: 48.3%

O=C(O)c1cc(Cl)cc(Cl)c1O [3,5-Dichlorosalicylic acid, reference compound]
Percent decrease in TMV-lesion diameter [2]: 36.6%
PR-1a protein following treatment, 96 h (PR-1a protein [1]; 1 mM, which equals 1): 1.83
PR-1a protein following treatment, 192 h (PR-1a protein [1]; 1 mM, which equals 1): 4.66
PR-1a induction, result in words (PR-1a protein [1]): showed the greatest induction of PR-1a

O=C(O)c1cc(F)cc(F)c1O [3,5-Difluorosalicylic acid]
Lesion diameter [2, 4]: 2.04 AB mm
Lesion diameter [2, 5]: 1.85 A mm
Percent decrease in TMV-lesion diameter [2]: 55.0%
Reduction of TMV-lesion size / resistance to TMV, result in words ([2]; spray application): statistically equal to that induced by 5 mM Salicylic acid
PR-1a protein following treatment, 96 h (PR-1a protein [1]; 1 mM, which equals 1): 3.64
PR-1a protein following treatment, 192 h (PR-1a protein [1]; 1 mM, which equals 1): 3.21
PR-1a induction, result in words (PR-1a protein [1]): more induction at 96 hours than the corresponding chlorinated salicylates

O=C(O)c1cc([N+](=O)[O-])cc([N+](=O)[O-])c1O [3,5-Dinitrosalicylic acid]
Mean PR Induction (relative induction of PR-1a protein) (PR-1a protein [1]; 1 mM, 96 h post infiltration, compared to 1 mM SA, which equals 1): 0
PR-1a induction, result in words (PR-1a protein [1]): completely deactivated

O=C(O)c1cc(F)cc(Cl)c1O [3-Chloro-5-fluorosalicylic acid]
Percent decrease in TMV-lesion diameter [2]: 34%

O=C(O)c1cccc(Cl)c1O [3-Chlorosalicylic acid]
Percent decrease in TMV-lesion diameter [2]: 55.1%

O=C(O)c1cc(Cl)cc(F)c1O [3-Fluoro-5-chlorosalicylic acid]
Percent decrease in TMV-lesion diameter [2]: 47.4%

O=C(O)c1cccc(F)c1O [3-Fluorosalicylic acid]
Percent decrease in TMV-lesion diameter [2]: 34.4%

O=C(O)c1ncccc1O [3-Hydroxypicolinic acid]
PR-1a induction, result in words (PR-1a protein [1]): induced PR-1a accumulation more than equimolar SA

COc1cccc(C(=O)O)c1O [3-Methoxysalicylic acid]
Percent decrease in TMV-lesion diameter [2]: 8.9%

O=C(O)c1cccc([N+](=O)[O-])c1O [3-Nitrosalicylic acid]
PR-1a induction, result in words (PR-1a protein [1]): decreased activity

Nc1ccc(C(=O)O)c(O)c1 [4-Aminosalicylic acid]
Percent decrease in TMV-lesion diameter [2]: 22.9%

O=C(O)c1ccc(Cl)cc1O [4-Chlorosalicylic acid, reference compound]
Percent decrease in TMV-lesion diameter [2]: 30.2%

O=C(O)c1ccc(F)cc1O [4-Fluorosalicylic acid]
Percent decrease in TMV-lesion diameter [2]: 36.2%

COc1ccc(C(=O)O)c(O)c1 [4-Methoxysalicylic acid]
Percent decrease in TMV-lesion diameter [2]: 17.6%

O=C(O)c1cc(Cl)ccc1O [5-Chlorosalicylic acid, reference compound]
Percent decrease in TMV-lesion diameter [2]: 38.7%
PR-1a protein following treatment, 96 h (PR-1a protein [1]; 1 mM, which equals 1): 1.02
PR-1a protein following treatment, 192 h (PR-1a protein [1]; 1 mM, which equals 1): 1.75

O=C(O)c1cc(F)ccc1O [5-Fluorosalicylic acid]
Percent decrease in TMV-lesion diameter [2]: 38.0%
PR-1a protein following treatment, 96 h (PR-1a protein [1]; 1 mM, which equals 1): 1.30
PR-1a protein following treatment, 192 h (PR-1a protein [1]; 1 mM, which equals 1): 1.74
PR-1a induction, result in words (PR-1a protein [1]): more induction at 96 hours than the corresponding chlorinated salicylates

COc1ccc(O)c(C(=O)O)c1 [5-Methoxysalicylic acid]
Percent decrease in TMV-lesion diameter [2]: 9.7%

O=C(O)c1cc([N+](=O)[O-])ccc1O [5-Nitrosalicylic acid]
PR-1a induction, result in words (PR-1a protein [1]): decreased activity

O=C(O)c1c(O)cccc1F [6-Fluorosalicylic acid]
Percent decrease in TMV-lesion diameter [2]: 24.3%

COc1cccc(O)c1C(=O)O [6-Methoxysalicylic acid]
Percent decrease in TMV-lesion diameter [2]: 13.3%

O=C(O)c1ccccc1 [Benzoic acid]
PR-1a induction, result in words (PR-1a protein [1]): unable to induce PR-1a accumulation

CCOC(=O)C(C)OC(=O)c1cc(Oc2ccc(C(F)(F)F)cc2Cl)ccc1[N+](=O)[O-] (centres unmarked) [Lactofen, 1-(carboxyethoxy) ethyl 5-[2-chloro-4-(tri-fluoromethyl)phenoxy]-2-nitrobenzoate]
PR-1a (relative induction) (PR-1a protein [3]; 290 ppm Lactofen, harvested 96 hours after spray application, compared to 1 mM SA): 0.44
PR-1a (relative induction) (PR-1a protein [3]; 1450 ppm Lactofen, harvested 96 hours after spray application, compared to 1 mM SA): 2.00

O=C([O-])c1ccccc1O.[Na+] [NaSA, sodium salicylate]
Lesion diameter ([2]; NaSA 1600 mg/l, 48 hours after application): 1.17 B mm
Lesion diameter ([2]; NaSA 1600 mg/l, 96 hours after application): 1.75 AB mm
PR-1a (relative induction) (PR-1a protein [3]; 1600 ppm NaSA, harvested 96 hours after spray application, compared to 1 mM SA): 1.00
PR-1a (relative induction) (PR-1a protein [3]; 8000 ppm NaSA, harvested 96 hours after spray application, compared to 1 mM SA): 4.56
PR-1a (relative induction) (PR-1a protein [3]; NaSA 1600 mg/l, 48 hours after application, compared to infiltration with 1 mM SA at 96 h): 0.34
PR-1a (relative induction) (PR-1a protein [3]; NaSA 1600 mg/l, 96 hours after application, compared to infiltration with 1 mM SA at 96 h): 1.02

O=C(O)c1ccccc1O [Salicylic acid, reference compound]
Lesion diameter [2, 4]: 2.20 BC mm
Lesion diameter [2, 5]: 2.52 B mm
Lesion diameter ([2]; 5 mM spray 48 h before TMV inoculation): 1.88 A mm
Lesion diameter ([2]; 5 mM spray 96 h before TMV inoculation): 1.68 A mm
PR-1a protein following treatment, 96 h (PR-1a protein [1]; 1 mM, which equals 1): 1.00
PR-1a protein following treatment, 192 h (PR-1a protein [1]; 1 mM, which equals 1): 1.46

O=C(O)c1ccccc1S [Thiosalicylic acid]
PR-1a induction, result in words (PR-1a protein [1]): significantly reduced activity

Salicylic acid/Sodiumsalicylate [reference compound]
Percent decrease in TMV-lesion diameter [2]: 30.1%
Mean PR Protein Induction (PR-1a protein [1]; 1 mM, 96 h post infiltration, compared to 1 mM SA, which equals 1 (Table 5)): 1.0
